Data on 2 compounds can be found in patent US9518038B2, “Condensation product of theanine derivative and carboxylic acid coumarin derivative, its intermediate, preparation method and use thereof” (SHANDONG YINGDONG YINGHAO BIOTECHNOLOGY, INC., priority 2012, dated 2016).

A value given as a limit tells only on which side of the number the result lay.

In data set [1] the test system is human liver cancer cells SMMC7721. Briefly: MTT growth inhibition, SMMC7721 cells. It is filed as cell-based. The following applies: SMMC-7721, S-7721 (SMMC7721), 72 h after treatment, read-out: Drug concentration (IC50) at which 50% cancer cells survived.
The test system of a further data set is VEGFR2. Put plainly: Western Blotting, VEGFR2 level. It is filed as cell-based. The following applies: human liver cancer cells, Lewis lung cancer cells and other cancer cell lines and tumor tissues, read-out: Effective concentration (IC50) for inhibition of VEGFR2. The source says:
(§1) Antibodies: primary antibodies of VEGFR, EGFR, c-Met, K-Ras, H-Ras, Akt, NF-κB, Cyclin D1, ER-alpha, Dvl-1, Dvl-2, Dvl-3, MMP-9, MMP2, β-catenin, Bcl-2, Bax, p53, p21, E-cadherin and Caspase3 protein, purchased from American Cell Signaling Technology Company and Santa Cruz Technology Company; and H3 acetylation, H4 acetylation and HDAC (HDAC3, HDAC4 and the like) Antibody Sample Kits, purchased from Cell Signaling Technology Company of the U.S.
(§2) (3) polyacrylamide gel electrophoresis (SDS-PAGE): an equal amount of protein lysate sample was used to separate protein, film transfer, and blocking, treated with appropriate primary antibodies and secondary antibodies in sequence, and the film was washed, then the color was developed with ECL kit, and a blot protein band was detected by exposure of an X-ray film; and a Gel-Pro Analyzer was used for quantitative analysis of gray degree, optical density value of the control group and the drug treatment group in various concentration were respectively compared with that of internal reference, the obtained ratios were respectively compared with the control group, and the protein expression level was semi-quantified.
(Immunoblotting shows a protein as a band on a membrane.)

The subject of data set [2] is human lung cancer cells A549. Put plainly: MTT growth inhibition, A549 cells. The settings on record: 72 h after treatment, read-out: Drug concentration (IC50) at which 50% cancer cells survived. It is filed as cell-based.
The subject of data set [3] is human prostate cancer cells PC-3. Put plainly: MTT growth inhibition, PC-3 cells. Type of data set: cell-based. The following applies: 72 h after treatment, read-out: Drug concentration (IC50) at which 50% cancer cells survived.
Data set [4] has as its system Lewis lung cancer (highly metastatic mouse lung cancer) cells. Put plainly: Mouse Lewis lung cancer metastasis model. The following applies: Lewis lung carcinoma, ip, LLC, vs DMSO solvent control, read-out: tumor lung metastasis inhibition rate % of mouse Lewis lung cancer; for inhibition in vivo at 60 mg/kg: 60 mg/kg intraperitoneal once a day; for inhibition in vivo at 90 mg/kg: 90 mg/kg intraperitoneal once a day. It is filed as in vivo, C57/BL6J black mice. The method, then: RPMI1640 and DMEM culture solutions: Hyclone Company; inactivated fetal bovine serum: Hyclone Company, preserved at −20° C.; trypsin: Amersco Company; and 0.4% trypan blue: Sigma Company;
(4) sacrifice of animals: the mice were anesthetized and photoed after treatment experiments; the nude mice were sacrificed by breaking neck, the tumor tissues were stripped under sterile conditions and the weight of the tumors was weighed; and the effects of the drugs on pathology and toxicity of the various organs and tissues were detected.

A further data set deals with EGFR. Briefly: Western Blotting, EGFR level. The settings on record: human liver cancer cells, Lewis lung cancer cells and other cancer cell lines and tumor tissues, read-out: Effective concentration (IC50) for inhibition of EGFR. Type of data set: cell-based.
Source text: as §1, §2

For data set [5], the system named is human breast cancer cells MDA-MB-231. Briefly: MTT growth inhibition, MDA-MB-231 cells. Type of data set: cell-based. The following applies: 72 h after treatment, read-out: Drug concentration (IC50) at which 50% cancer cells survived.
The nature of data set [6]: Fluorescent imaging in vivo and in vitro. The following applies: 60 mg/kg body weight/0.2 ml. Type of data set: physicochemical. The method, then:
Fluorescent images and wavelength ranges of the compounds as obtained in embodiments 1-7 were determined according to the literature method (Chen Y, et al., 2-(3-{1-Carboxy-5-[(6-[18F]fluoro-pyridine-3-carbonyl)-amino]-pentyl}-ureido)-pentanedioic acid, [18F]DCFPyL, a PSMA-based PET imaging agent for prostate cancer. Clin Cancer Res, 2011, 17(24):7645-53), and the results were shown in Table 3 and FIG. 1.
2. Experimental procedure: For in-vitro fluorescent imaging and detection: the compounds Ia-Ih as obtained in embodiments 1-7 were prepared in 1.5 ml plastic centrifugal tubes into a solution with the concentration of 60 mg/0.2 ml, fluorescent signals and images were respectively detected and recorded with a multifunctional microplate reader and an animal in-vivo imaging instrument under the following excitation and emission wavelength conditions, and the obtained results were shown in Table 3 and FIG. 1 (small test tube photos); and for the detection of fluorescent images in-vivo: after 16 h of fasting treatment of the experimental animals (while drinking water was normally supplied), solutions of the compounds Ia-Ih as obtained in embodiments 1-7 were prepared according to a concentration of 60 mg/kg body weight/0.2 ml, and intraperitoneally administered to the animal, the fluorescent images were detected and recorded with the animal in-vivo imaging instrument under the following excitation and emission wavelength conditions, the obtained results were shown in FIG. 1 (animal in-vivo imaged photos); wherein, the experimental excitation wavelength range was 360 nm-590 nm; and the detection wavelength range was 410 nm-700 nm.

Regarding `CCNC(=O)CCC(NC(=O)c1cc2ccccc2oc1=O)C(=O)OC` (centres unmarked) [Compound Ia, methyl 5-ethylamino-5-oxo-2-(2-oxo-2H-benzopyran-3-carboxamido)pentanoate], the IC50 in data set [1] is 75 ± 30 µM; in the data set on VEGFR2 it was less than 125 µM; in data set [2] it was 300 ± 60 µM; in data set [3], 146 µM; in the data set on EGFR, less than 125 µM; in data set [5], 240 µM. Moreover, the inhibition in vivo at 60 mg/kg in data set [4] amounted to 55.4%. In data set [4], the inhibition in vivo at 90 mg/kg was 60.9%. Also, the “Emission (fluorescent wavelength range detectable in vivo and in vitro)” value in data set [6] is 430-650 nm. For the same compound, the “Excitation (fluorescent wavelength range detectable in vivo and in vitro)” value in data set [6] was 360-610 nm.

Regarding `CCNC(=O)CC[C@@H](NC(=O)c1cc2cc(Br)ccc2oc1=O)C(=O)OCC` [Compound Id, (R)-2-(6-Br-2-oxo-2H-benzopyran-3-carboxamido)-5-ethylamino-5-oxo-pentanoic acid ethyl ester], the IC50 was 65 µM in data set [1]; less than 100 µM with VEGFR2; 139 ± 50 µM in data set [2]; 110 µM in data set [3]; less than 100 µM in the data set on EGFR; 91 µM in data set [5]. Also, the inhibition in vivo at 60 mg/kg in data set [4] worked out at 69.2%. Besides, in data set [4], the inhibition in vivo at 90 mg/kg was 82.5%. The “Emission (fluorescent wavelength range detectable in vivo and in vitro)” value in data set [6] was 430-670 nm. In addition, the “Excitation (fluorescent wavelength range detectable in vivo and in vitro)” value in data set [6] is on record as 36-610 nm.
